Results as given in patent US20200016163A1, “TREATMENT OF DEMENTIA WITH CANNABINOID AGONISTS” (priority 2017, published 2020).
Entries after “also recorded” stand apart in the source; their conditions may differ.

Assays:
[1] = test system: lesion of cholinergic cells of nucleus basalis magnocellularis in rats (model of irreversible Alzheimer-type dementia); experiment: Barnes maze (spatial memory) in rats with 192 IgG-saporin lesion of the nucleus basalis magnocellularis, 1 round of training sessions; assay type: in vivo, Sprague Dawley rats; conditions: 5 administrations
Description: The animal model used is the lesion of cholinergic cells of nucleus basalis magnocellularis in rats to cause memory loss that is sustained over time. It is a recognized model of irreversible-type dementia, specifically of irreversible Alzheimer-type dementia.
(§1) More specifically, a bilateral lesion was generated in the nucleus basalis magnocellularis in the brain of male Sprague Dawley rats (male 150-200 g) by means of stereotaxic coordinates (bregma −1.5 mm anteroposterior, ±3 mm laterodorsal and −8 mm ventral from the surface of the cranium) by injecting toxin 192 IgG-saporin (Merck-Millipore. Ref:MAB390) (SAP, n=30) (135 ng/μl/hemisphere; 0.25 μl/min) dissolved in artificial cerebrospinal fluid (CSF, n=28) (148 mM NaCl, 2.7 mM KCl, […], 1.2 mM CaCl2.2H2O; pH 7.4 adjusted with 1 mM K2HPO4) and the same method was carried out for the lesion control group but in this case only CSF (1 μl/hemisphere) was injected. Finally, as control of the latter, another group of animals was used which only received the injection of the needle and no compound was administered (SHAM, n=7). To stabilize the lesion process, the animals were not handled for one week. […] The compound is dissolved in DMSO:Cremophor:saline according to ratio [1:1:18].
The test used to evaluate the cognitive deficit of these models was the Barnes maze, which measures spatial memory. It is a circular maze with 20 holes on the periphery and only one of them has an escape box. When the animal finds this box, it is returned to its cage. This method is performed four times a day for four days (16 training sessions). On the fifth day, the hole leading to the escape box is covered and the animal explores the maze for three minutes for the purpose of finding this hole (test). The time in the target quadrant will be evaluated in the test. This parameter indicates if the animal accurately remembers where the escape hole is located because it will spend more time in the quadrant containing said hole (target quadrant). This parameter was analyzed by means of SMART 3.0 video-tracking software. Compared to other types of behavioral tests that evaluate memory in rodents, this test has the advantage that there is no aversive stimulus with which effects relating to fear and anxiety may interfere, which thereby prevents confusing anxiolytic effects with cognitive enhancing effects.

[2] = test system: lesion of cholinergic cells of nucleus basalis magnocellularis in rats (model of irreversible Alzheimer-type dementia); experiment: Barnes maze in 192 IgG-saporin lesioned rats, 2 rounds of training sessions (second round with treatment); assay type: in vivo, Sprague Dawley rats; conditions: SAP* rats with previously shown deficit (SAP*+WIN); new escape hole, 0.5 mg/kg i.p. on 4 training days and test day from day 18
Description: as §1
The test used to evaluate the cognitive deficit of these models was the Barnes maze, which measures spatial memory. It is a circular maze with 20 holes on the periphery and only one of them has an escape box. When the animal finds this box, it is returned to its cage. […] The time in the target quadrant will be evaluated in the test. […] This parameter was analyzed by means of SMART 3.0 video-tracking software. […]

SMILES	effect of CB1 antagonist co-administration on the WIN55,212-2 effect, time in the target quadrant, Barnes maze test ([1]; SAP-lesioned rats (SAP+W+SR), SR141716A 0.5 mg/kg together with WIN55,212-2 0.5 mg/kg i.p.)	effect on memory of a control rat (time in the target quadrant), Barnes maze test ([1]; CSF control rats (CSF+W3), 3 mg/kg i.p.)	time in the target quadrant, Barnes maze test, non-lesioned control group ([1]; CSF control rats (CSF+WIN), 0.5 mg/kg i.p. once daily)	time in the target quadrant, Barnes maze test, high dose ([1]; SAP-lesioned rats (SAP+W3), 3 mg/kg i.p.)	time in the target quadrant (memory deficit), Barnes maze test ([1]; SAP-lesioned rats (SAP+WIN), 0.5 mg/kg i.p. once daily, one hour before training/test, 0.5 mg/kg)	ability to remember the escape hole (time in the target quadrant), Barnes maze test [2]
Cc1c(C(=O)NN2CCCCC2)nn(-c2ccc(Cl)cc2Cl)c1-c1ccc(Cl)cc1 [SR141716A]	reversing the effect produced by treatment with WIN55,212-2 alone					
Cc1c(C(=O)c2cccc3ccccc23)c2cccc3c2n1[C@H](CN1CCOCC1)CO3 [WIN55,212-2]		detrimental for memory	no effect	behave like a control rat	had no memory deficits; also recorded: spends the most amount of time in the target quadrant	capable of remembering it
